# Data taken from US20240307497A1, “ADIPONECTIN ALONE OR IN COMBINATION WITH EXTRACORPOREAL PHOTOPHERESIS (ECP) FOR IMMUNE RELATED ADVERSE EVENTS OF IMMUNE CHECKPOINT INHIBITORS” (Mallinckrodt Pharmaceuticals Ireland Limited, priority 2022, published 2024).
# What was measured:
# B16.F10 melanoma [1] = assay: B16.F10 intravenous/metastatic tumor model; assay type: in vivo, C57BL/6 mice; conditions: added to anti-PD1, vs anti-PD1-therapy alone
# Experimental: C57BL/6 mice were intravenously injected with 10 000 B16.F10luc/GFP melanoma cells in the tail vein and treated with 0.2 mg ICI or the respective isotype control on day 1, 4, 8, 16 and 22. ECP-treated splenocytes were transplanted (107; i.v.) on days 13, 18, and 22, and daily steroids were given (i.p.) from days 13-22. Survival of the mice was monitored until day 60.
# [2] = test system: BRAF^V600E-mutant 4434 melanoma; assay: 4434 intravenous tumor model; assay type: in vivo, C57BL/6 mice; conditions: added to anti-PD1, second melanoma model
# [3] = test system: B16.F10 melanoma with DSS/anti-PD1-mediated colitis; assay: Combined colitis and B16.F10 tumor model; assay type: in vivo, C57BL/6 mice
# Experimental: C57BL/6 mice were intravenously injected with 10 000 B16.F10luc/GFP melanoma cells in the tail vein and received 3% Dextran Sodium Sulfate (DSS colitis grade, 36-50 kDa; MP Biomedicals) in drinking water from day 9-12, followed by normal drinking water. Mice were treated with 0.2 mg ICI or the respective isotype control on days 1, 4, 8, 16 and 22. ECP-treated splenocytes were transplanted (107; i.v.) on days 13, 18 and 22, daily steroid was given (i.p.) from days 13-22. Mice were imaged with BLI on day 23, organs and serum were harvested on day 24.
# Luciferin (D-luciferin, potassium salt (S)-4,5-Dihydro-2-(6-hydroxy-2-benzothiazolyl)-4-thiazolecarboxylic acid potassium salt; Biosynth) was dissolved in H2O and injected i.p. at a concentration of 150 μg/g body weight. After 10 minutes, the mice were imaged using an IVIS Lumina III in vivo imaging system (PerkinElmer) with an exposure time of 2 minutes. The luciferase signal was quantified in photons per second per mouse. Acquisition, analysis, and visualization of BLI were performed using Living Image Software (PerkinElmer).
# [4] = test system: s.c. B16.F10-OVA melanoma and MC38-OVA^dim colorectal tumors; assay: OVA-transgenic subcutaneous tumor models; assay type: in vivo, mice; conditions: OT-I and CD8^+OVA-Dextramer^+ T-cells, d16
# Experimental: C57BL/6 recipients were transplanted subcutaneously with 1×106 MC38-OVAdim or 0.5×10^6 MC38 cells into the shorn right flank. Recipients were treated i.p. with 0.2 mg ICI on days 1, 4, 8, 11, 15. ECP-treated splenocytes were transplanted (107; i.v.) on days 6, 11 and 15, daily steroids were given (i.p.) from days 6-15. On day 16, serum samples were harvested by retroorbital bleeding, the mice were euthanized and tumors were resected for further studies.
# CD45.1 recipients were transplanted subcutaneously with 1×106 B16.F10-OVA cells into the shorn right flank and treated i.p. with 0.2 mg ICI on day 1, 4, 8, 11, 15. ECP-treated splenocytes were transplanted (107; i.v.) on days 6, 11 and 15, daily steroids were given (i.p.) from days 6-15. OT-I splenocytes (CD45.2) were activated on day 2 at a density of 2×10^6 cells/mL in the presence of 100 U/mL rmIL-2 (Peprotech) and 0.1 μg/mL OVA257-264 peptide (Sigma) in RPMI supplemented with 10% FCS, 1% P/S, 55 μM beta-Mercaptoethanol (Gibco) and 4 mM glutamine (Gibco). Splenocytes were washed on day 4 and replated with 100 U/mL rmIL-2 at 2×10^6 cells/mL. […]
# For quantification of adiponectin concentrations in murine serum specimen, blood was harvested by retroorbital bleeding and serum was isolated by centrifugation. Adiponectin concentrations were measured using Adiponectin Mouse ELISA Kit (ThermoFisher) at 20,000-fold dilution.
# B16.F10 melanoma [5] = assay: Recall immunity experiment; assay type: in vivo, mice; conditions: T-cells of treated donors into secondary B16.F10 recipients
# Excerpt: For evaluation of recall immunity, T-cell donor mice were challenged with 104 B16.F10 melanoma cells (i.v.) and treated with anti-PD1 (days 1, 3, 6, 9, 12), ECP (days 3, 7, 12) or steroids (days 3-12). Secondary recipients were sub-lethally irradiated with 6 Gy TBI and injected i.v. with 104 B16.F10 or 2×10^6 4434 melanoma cells. Splenic T-cells were enriched from T-cell donors on day 13 using the Pan T-cell Isolation Kit II (mouse, Miltenyi) and 1×105 T-cells were transplanted i.v. into secondary recipients on day 3 following tumor injection. Untreated melanoma mice served as control.
compound,measurement,setting,value
"C[C@]12C=CC(=O)C=C1CC[C@@H]1[C@@H]2[C@@H](O)C[C@@]2(C)[C@H]1CC[C@]2(O)C(=O)CO [Steroids, Prednisolone]",survival,B16.F10 melanoma [1],reduced survival
same,survival,[2],findings were reproduced
same,colitis in melanoma-bearing mice,[3]; d23,similarly reduced
same,tumor burden / control of tumor growth,[3]; luminescence imaging and melanoma transcripts in lungs,higher tumor burden
same,tumor-specific T-cells in the tumor microenvironment,[4],reduction of adoptively-transferred OT-I T-cells and endogenous CD8^+OVA-Dextramer^+ T-cells
same,recall-immunity of transferred T-cells,B16.F10 melanoma [5],this was not the case
